Target: T1, 6xHis-CaTps1 (Candida albicans, UniProt Q92410)
T1 construct: Briefly, the full-length; thrombin cleavage site (pET-28a linker) (N); made in house; host or cells: E. coli BL21(DE3)pLysS
T1 sequence (Q92410 1-478): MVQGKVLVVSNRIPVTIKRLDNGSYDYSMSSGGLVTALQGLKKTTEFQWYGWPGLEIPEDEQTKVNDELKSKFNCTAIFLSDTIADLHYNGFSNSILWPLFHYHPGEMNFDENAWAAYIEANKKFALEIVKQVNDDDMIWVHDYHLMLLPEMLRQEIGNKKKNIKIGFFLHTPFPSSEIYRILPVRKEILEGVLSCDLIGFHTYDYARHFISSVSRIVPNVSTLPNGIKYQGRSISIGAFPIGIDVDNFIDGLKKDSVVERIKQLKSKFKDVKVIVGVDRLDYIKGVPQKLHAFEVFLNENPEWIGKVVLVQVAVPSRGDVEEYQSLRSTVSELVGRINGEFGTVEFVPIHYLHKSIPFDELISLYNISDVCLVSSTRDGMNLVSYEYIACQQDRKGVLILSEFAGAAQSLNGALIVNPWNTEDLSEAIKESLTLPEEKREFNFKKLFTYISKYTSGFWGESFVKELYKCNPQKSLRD
Assay: Spectrophotometric-coupled Tps1 enzyme activity assay
Assay type: biochemical, C. albicans
Settings: 1 mM 4456dh, 4°C for 16 hours
Protocol: Fig 2 4456dh binds Tps1 and inhibits Tps1 activity. (A) Structure of 4456dh. (B and C) Glo-melt thermal shift assays reveal 4456dh destabilizes 6xHis-CaTps1 (B) and 6xHis-CnTps1 (C). The first derivative of the raw data was used to determine the melting temperature of 1 µM 6xHis-CaTps1 (B) and 1 µM 6xHis-CnTps1 (C) treated without (black) or with 2 mM 4456dh (red). […] The resulting dose-response curves were fitted to a one-site binding model to extract Kd values; the SD was calculated using the Kd values from each independent experiment (n = 3). (F) Tps1 enzyme activity assay with 5 µM 6xHis-CaTps1 (F) and 6xHis-CnTps1 (G) ±1 mM 4456dh. Error bars represent SE. […]
The ability of 4456dh to inhibit the activity of CaTps1 was tested using a spectrophotometric-coupled Tps1 enzyme assay, in which recombinant 6xHis-CaTps1 was incubated with 1 mM 4456dh at 4°C for 16 hours. […] Similarly, the effect of 1 mM 4456dh on 6xHis-CnTps1 activity was determined. […]
82 determined by SDS-PAGE analysis, were pooled and concentrated to 1 mg/mL for downstream […]
93 The data were acquired with MO.Control 1.5.3 (NanoTemper Technologies GmbH). Recorded
94 data were analyzed with MO.Affinity Analysis 2.2.7 (NanoTemper Technologies GmbH). […]
100 2X Glo-melt dye. Thermal denaturation was measured using an RT-PCR thermocycler (BioRad) […]
102 determined by identifying the inflection point of the derivative data. […]

Cn1cc(-c2csc(NC(=O)Cc3ccccn3)n2)cn1 [Compound 4456dh]
reduction of 6xHis-CaTps1 activity: approximately 30%
